Consider five molecules from patent publication US9750753B1, “Method of treating diseases associated with LRRK2 mutation using hexachlorophene” (University of South Florida, priority 2014, dated 2017).

Data set [1] has as its system rats. Particulars: cited from earlier work; for protection from toxicity induced by B10: pre-treatment prior to administration of B10, rats.
Data set [2] has as its system Wnt-β-catenin signaling pathway. To be noted: B lymphoma cells; cited from earlier work.
The test system of the next data set is synuclein. Put plainly: Synuclein level in HeLa cells (selectivity control). It counts as cell-based. Particulars: 1 μM.
The subject of data set [3] is rats. Particulars: oral; cited from earlier work.
For the next data set, the target named is amyloid beta (Aβ) (Homo sapiens, UniProt P05067). To be noted: cited from earlier work.
Sequence of amyloid beta (Aβ) (P05067 672-713 limits assumed): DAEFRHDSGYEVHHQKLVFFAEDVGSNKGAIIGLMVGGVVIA
Data set [4] deals with T1, wild-type human LRRK2 protein (Homo sapiens, UniProt Q5S007).
T1 construct: expressed in transfected cells; host or cells: HeLa
T1 sequence (Q5S007 whole entry): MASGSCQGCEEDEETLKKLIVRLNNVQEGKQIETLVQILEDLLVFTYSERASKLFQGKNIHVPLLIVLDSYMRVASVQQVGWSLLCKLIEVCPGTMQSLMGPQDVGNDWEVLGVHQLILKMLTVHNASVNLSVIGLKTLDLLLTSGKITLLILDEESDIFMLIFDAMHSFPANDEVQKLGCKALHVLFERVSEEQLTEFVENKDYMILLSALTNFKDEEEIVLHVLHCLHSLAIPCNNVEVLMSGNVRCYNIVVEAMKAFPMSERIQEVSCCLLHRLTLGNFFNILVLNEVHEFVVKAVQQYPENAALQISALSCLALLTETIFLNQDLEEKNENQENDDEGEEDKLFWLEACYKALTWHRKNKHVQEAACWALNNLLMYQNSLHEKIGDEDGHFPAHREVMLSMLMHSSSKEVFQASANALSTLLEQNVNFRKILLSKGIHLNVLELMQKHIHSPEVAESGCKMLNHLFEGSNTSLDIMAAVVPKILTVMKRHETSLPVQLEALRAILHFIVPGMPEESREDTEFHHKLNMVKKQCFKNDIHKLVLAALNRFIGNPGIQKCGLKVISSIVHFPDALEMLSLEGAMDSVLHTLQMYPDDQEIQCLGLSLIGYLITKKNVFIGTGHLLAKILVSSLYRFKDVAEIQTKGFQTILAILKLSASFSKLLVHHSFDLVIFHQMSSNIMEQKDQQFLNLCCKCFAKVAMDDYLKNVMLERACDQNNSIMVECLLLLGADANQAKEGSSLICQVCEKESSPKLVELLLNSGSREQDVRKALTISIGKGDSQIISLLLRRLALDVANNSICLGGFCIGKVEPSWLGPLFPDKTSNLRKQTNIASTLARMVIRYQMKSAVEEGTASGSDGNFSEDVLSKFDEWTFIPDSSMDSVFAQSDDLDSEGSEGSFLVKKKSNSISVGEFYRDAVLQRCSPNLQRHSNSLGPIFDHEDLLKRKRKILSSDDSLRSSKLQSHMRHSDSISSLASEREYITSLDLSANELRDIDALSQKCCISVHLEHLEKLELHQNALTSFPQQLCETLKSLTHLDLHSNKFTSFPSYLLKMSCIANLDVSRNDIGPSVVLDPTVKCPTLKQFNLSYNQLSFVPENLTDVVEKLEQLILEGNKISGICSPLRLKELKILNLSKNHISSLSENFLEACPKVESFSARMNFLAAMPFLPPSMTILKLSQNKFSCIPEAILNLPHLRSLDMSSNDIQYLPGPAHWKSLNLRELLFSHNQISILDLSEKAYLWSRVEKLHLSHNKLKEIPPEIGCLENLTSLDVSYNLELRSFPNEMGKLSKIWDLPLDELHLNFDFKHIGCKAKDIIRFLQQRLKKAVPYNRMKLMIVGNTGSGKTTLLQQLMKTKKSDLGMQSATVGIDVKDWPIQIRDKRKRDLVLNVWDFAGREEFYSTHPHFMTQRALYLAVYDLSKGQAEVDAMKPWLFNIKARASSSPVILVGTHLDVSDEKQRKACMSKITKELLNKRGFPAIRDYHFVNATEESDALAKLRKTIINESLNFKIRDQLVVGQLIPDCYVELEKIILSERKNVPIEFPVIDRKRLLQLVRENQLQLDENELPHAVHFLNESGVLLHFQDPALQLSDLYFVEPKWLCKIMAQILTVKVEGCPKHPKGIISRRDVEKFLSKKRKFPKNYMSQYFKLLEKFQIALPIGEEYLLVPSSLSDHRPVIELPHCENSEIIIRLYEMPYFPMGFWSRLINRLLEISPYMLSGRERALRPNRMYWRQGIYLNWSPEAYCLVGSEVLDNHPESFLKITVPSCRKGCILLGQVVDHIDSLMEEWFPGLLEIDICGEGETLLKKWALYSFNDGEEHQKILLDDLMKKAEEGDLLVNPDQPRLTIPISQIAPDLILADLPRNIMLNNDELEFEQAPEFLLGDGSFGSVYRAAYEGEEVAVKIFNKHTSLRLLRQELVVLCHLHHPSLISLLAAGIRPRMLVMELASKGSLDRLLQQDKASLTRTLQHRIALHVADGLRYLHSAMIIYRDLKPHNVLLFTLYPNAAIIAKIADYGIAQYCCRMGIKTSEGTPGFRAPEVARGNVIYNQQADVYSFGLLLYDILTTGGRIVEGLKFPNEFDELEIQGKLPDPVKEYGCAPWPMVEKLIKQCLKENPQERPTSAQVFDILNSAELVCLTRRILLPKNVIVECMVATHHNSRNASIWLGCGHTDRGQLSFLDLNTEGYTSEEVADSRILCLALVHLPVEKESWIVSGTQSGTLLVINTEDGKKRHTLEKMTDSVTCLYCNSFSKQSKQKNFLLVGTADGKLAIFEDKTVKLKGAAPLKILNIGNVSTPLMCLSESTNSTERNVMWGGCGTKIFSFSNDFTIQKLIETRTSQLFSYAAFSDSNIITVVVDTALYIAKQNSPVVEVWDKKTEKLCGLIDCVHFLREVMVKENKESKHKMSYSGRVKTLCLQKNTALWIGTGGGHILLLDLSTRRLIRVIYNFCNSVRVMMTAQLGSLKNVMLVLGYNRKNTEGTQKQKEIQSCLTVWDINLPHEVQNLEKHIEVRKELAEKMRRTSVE
Put plainly: Western blot of overexpressed wild-type LRRK2 in transfected HeLa cells. Type of data set: cell-based. On the procedure: (§1) HeLa cells overexpressing wild-type or mutant human LRRK2 protein and N9 cells expressing endogenous LRRK2 protein were treated with hexachlorophene (labeled as B10 in FIGS. 1 and 2) for 24 hours.
(§2) HeLa cells were grown in DMEM with 10% FBS and 1% penicillin and streptomycin. Cells were transfected with constructs for LRRK2 and the G2019S mutant using Lipofectamine 2000. HeLa cells were used due to the ease of transfection with LRRK2 and its mutants.
(§3) Samples were harvested by using MPER mammalian extraction buffer (Pierce, Thermo Scientific) containing protease and phosphatase inhibitors. After protein estimation using a BCA kit (Pierce, Thermo Scientific), equal amounts of protein from each sample was subjected to gel electrophoresis and western blotting. Phospho (p-) and Total (T-) LRRK2 (abcam) and GAPDH (Meridian Life Sciences) antibodies were used to detect phospho and total LRRK2 and GAPDH, respectively. Analysis of changes in the LRRK2 level was performed using Scion Image software.
(In general: A western blot detects proteins with antibodies after separation by electrophoresis.)

For another data set, the target named is T2, mutant (G2019S) LRRK2 (Homo sapiens, UniProt Q5S007, G2019S).
T2 construct: expressed in transfected cells; host or cells: HeLa
T2 sequence (Q5S007 whole entry G2019S): as the sequence (Q5S007 whole entry) above, with G2019S counted along it
Put plainly: Western blot of overexpressed mutant (G2019S) LRRK2 in transfected HeLa cells. It counts as cell-based. Particulars: 1 μM, 24 hours, vs vehicle DMSO control. The protocol:
as §1, §2, §3

The subject of data set [5] is primary neuronal cultures. To be noted: cited from earlier work.
The conditions of data set [6]: dose of about 10 mg/kg, transgenic TDP43 mouse model; cited from earlier work.
The next data set has as its target T3, endogenous LRRK2 protein (Mus musculus, UniProt Q5S006).
T3 construct: N9 cells were used because they express high levels of endogenous LRRK2; endogenous in cells; host or cells: N9
Put plainly: Western blot of endogenous LRRK2 in N9 cells. Type of data set: cell-based. Particulars: 1 μM, 24 hours. On the procedure: as §1
N9 cells were grown in DMEM supplemented with 10% FBS, 1% penicillin and streptomycin, and 2% L-glutamine. N9 cells were used because they express high levels of endogenous LRRK2. They are very difficult to transfect and were only used to study the effect of hexachlorophene on wild-type LRRK2.
as §3

In another data set the test system is LRRK2. To be noted: cited from earlier work.

What is called LD50 is the dose at which mortality reaches 50%.

SMILES strings stand for the structures. Entries after “also recorded” stand apart in the source; their conditions may differ.

T3 sequence (Q5S006 whole entry): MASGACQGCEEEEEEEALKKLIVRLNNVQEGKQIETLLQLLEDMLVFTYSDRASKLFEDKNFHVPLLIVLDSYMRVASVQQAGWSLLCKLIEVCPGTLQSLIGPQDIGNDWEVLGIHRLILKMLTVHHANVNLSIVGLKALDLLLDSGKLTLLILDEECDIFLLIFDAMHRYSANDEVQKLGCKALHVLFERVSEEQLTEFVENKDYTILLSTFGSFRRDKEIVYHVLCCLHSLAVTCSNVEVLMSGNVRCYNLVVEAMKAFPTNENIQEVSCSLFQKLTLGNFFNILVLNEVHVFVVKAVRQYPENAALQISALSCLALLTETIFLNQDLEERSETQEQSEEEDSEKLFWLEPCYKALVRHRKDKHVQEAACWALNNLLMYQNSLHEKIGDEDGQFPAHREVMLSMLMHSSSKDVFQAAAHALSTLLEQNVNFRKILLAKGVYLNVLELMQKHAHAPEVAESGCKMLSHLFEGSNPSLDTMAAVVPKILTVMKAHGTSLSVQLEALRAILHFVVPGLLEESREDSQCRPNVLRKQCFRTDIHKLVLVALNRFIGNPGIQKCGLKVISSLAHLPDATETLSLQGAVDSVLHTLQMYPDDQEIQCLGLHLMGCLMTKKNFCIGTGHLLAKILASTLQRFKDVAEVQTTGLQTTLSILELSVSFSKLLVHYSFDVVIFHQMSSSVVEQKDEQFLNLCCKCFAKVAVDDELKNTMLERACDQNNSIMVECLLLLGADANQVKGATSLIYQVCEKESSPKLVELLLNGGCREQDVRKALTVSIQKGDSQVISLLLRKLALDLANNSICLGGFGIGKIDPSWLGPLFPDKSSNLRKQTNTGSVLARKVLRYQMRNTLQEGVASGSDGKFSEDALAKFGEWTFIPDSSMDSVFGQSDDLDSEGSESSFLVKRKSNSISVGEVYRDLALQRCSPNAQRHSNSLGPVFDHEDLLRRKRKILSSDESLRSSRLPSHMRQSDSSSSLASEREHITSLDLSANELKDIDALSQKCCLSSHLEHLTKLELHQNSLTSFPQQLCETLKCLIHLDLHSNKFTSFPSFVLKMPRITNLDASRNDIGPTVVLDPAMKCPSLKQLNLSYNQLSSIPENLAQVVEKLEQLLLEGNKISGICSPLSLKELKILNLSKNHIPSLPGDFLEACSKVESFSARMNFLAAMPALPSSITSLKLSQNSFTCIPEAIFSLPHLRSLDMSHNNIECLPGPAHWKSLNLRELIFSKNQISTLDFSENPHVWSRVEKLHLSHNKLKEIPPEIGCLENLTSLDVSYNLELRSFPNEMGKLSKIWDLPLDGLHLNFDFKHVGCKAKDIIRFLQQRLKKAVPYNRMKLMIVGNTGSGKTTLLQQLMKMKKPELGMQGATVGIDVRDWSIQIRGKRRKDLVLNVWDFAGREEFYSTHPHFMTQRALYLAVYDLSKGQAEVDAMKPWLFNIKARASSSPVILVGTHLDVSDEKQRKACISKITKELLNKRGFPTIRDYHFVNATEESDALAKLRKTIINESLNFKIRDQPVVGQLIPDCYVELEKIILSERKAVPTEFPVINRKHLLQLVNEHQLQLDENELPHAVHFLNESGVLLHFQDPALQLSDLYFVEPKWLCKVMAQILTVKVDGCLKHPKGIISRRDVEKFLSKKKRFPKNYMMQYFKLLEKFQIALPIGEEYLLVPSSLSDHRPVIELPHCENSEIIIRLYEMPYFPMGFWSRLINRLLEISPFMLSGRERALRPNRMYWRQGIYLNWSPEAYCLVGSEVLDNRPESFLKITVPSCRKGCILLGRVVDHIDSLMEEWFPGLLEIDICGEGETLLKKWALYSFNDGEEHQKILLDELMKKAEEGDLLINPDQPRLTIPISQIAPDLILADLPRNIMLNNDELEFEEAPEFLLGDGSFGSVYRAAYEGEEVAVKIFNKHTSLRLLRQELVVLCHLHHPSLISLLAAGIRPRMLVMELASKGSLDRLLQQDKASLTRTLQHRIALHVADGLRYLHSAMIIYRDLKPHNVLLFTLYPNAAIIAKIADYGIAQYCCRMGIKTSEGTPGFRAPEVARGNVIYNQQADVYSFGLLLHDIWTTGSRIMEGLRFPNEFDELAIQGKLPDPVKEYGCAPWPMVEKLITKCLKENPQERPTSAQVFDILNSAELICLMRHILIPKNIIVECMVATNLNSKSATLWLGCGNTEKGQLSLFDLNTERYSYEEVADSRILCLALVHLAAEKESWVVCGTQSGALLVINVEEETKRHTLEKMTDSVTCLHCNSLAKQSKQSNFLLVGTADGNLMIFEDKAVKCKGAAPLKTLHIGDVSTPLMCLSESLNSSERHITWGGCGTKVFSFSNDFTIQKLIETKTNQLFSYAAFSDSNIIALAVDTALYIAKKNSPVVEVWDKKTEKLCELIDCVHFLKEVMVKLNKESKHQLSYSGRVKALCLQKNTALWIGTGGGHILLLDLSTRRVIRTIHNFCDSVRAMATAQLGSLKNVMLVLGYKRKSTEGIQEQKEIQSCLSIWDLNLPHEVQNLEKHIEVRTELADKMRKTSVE

As for `C[N+](C)(C)C[C@H](O)CC(=O)[O-]` [L-carnitine], the “protection from toxicity induced by B10” value in the data set with rats [1] is listed as “protected”.

With `CCCC(C(=O)OCCN(CC)CC)(c1ccccc1)c1ccccc1.Cl` [SKF-525A, 2-diethylaminoethyl-2,2-diphenylvalerate-Hcl], the “protective effect by route of administration” value in the data set with rats [1] (oral vs ip administration of the pre-treatment agent) is given as “only occurred upon oral administration”. For the same molecule, the “protection from toxicity induced by B10” value in the data set on rats [1] is listed as “lessened toxicity”.

For `CCOc1ccc2c(c1)C(C)=CC(C)(C)N2` [ethoxyquin], the “protection from toxicity induced by B10” value in the data set on rats [1] was “protects”.

For the molecule `Oc1c(Cl)cc(Cl)c(Cl)c1Cc1c(O)c(Cl)cc(Cl)c1Cl` [hexachlorophene, Hexachlorophene], the “cell death (LDH release)” value in the data set on N9 cells is on record as “minimal amounts of cell death”. The “cell death (LDH release)” value with HeLa cells is on record as “minimal amounts of cell death”. Further, the “effect on Wnt-β-catenin signaling pathway” value in data set [2] is recorded as “inhibit”. Moreover, in the data set on synuclein, the effect on synuclein entry is on record as “does not affect”. For the same molecule, the LD50 in the data set on rats [3] is 66 mg/kg. The “effect on Aβ fibril formation” value at amyloid beta (Aβ) is on record as “inhibit”. The “overexpressed wild-type LRRK2 level” value in [4] (HeLa cells, 1 μM, 24 hours, vs vehicle DMSO control) was “selectively reduces; also recorded: decreased”. Further, the “period of maximal effect on LRRK2 levels” value in data set [4] (cell line not stated (HeLa and N9 cells used)) was 24 h. The “overexpressed mutant (G2019S) LRRK2 level” value at mutant (G2019S) LRRK2 is listed as “selectively reduces; also recorded: decreased”. Further, the “protection from Aβ-induced toxicity” value in [5] is recorded as “protect”. For the same molecule, the brain permeability in [6] was 50%. Also, on endogenous LRRK2 protein, the “endogenous pLRRK2 level” value is on record as “reduces” and the “expression of endogenous LRRK2” value is “reduces”.

Regarding `CC1=C(CO)C(=O)O[C@@H]([C@@H](C)[C@H]2CC[C@H]3[C@@H]4C[C@H]5O[C@]56[C@@H](O)C=CC(=O)[C@]6(C)[C@H]4CC[C@]23C)C1` [withaferin A], the “clearance of LRRK2” value in the data set with LRRK2 (WA in the presence of celastrol, additive manner) was “enhanced”. Moreover, the “LRRK2 levels in cells” value in the data set with LRRK2 (compound alone, dose and time dependent manner) is on record as “reduced”.
